We go through six molecules from ChEMBL document CHEMBL5724914, “Linking interpersonal differences in gut microbiota composition and drug biotransformation activity” (2024).

Data set [1] in a line: The drug is tested on Z-023 corresponding to metagenome with ENA study accession number: PRJEB37062 and ENA sample accession number: ERS12561822 for biotransformation under anaerobic condition. The drug concentrations were measured over 9 timepoints collected between 0 and 24 hours of incubation by liquid-chromatography-coupled mass spectrometry (LC–MS). As to conditions: 2 µM.

Data set [2] is described as follows: The drug is tested on Z-021 corresponding to metagenome with ENA study accession number: PRJEB37062 and ENA sample accession number: ERS12561820 for biotransformation under anaerobic condition. The drug concentrations were measured over 9 timepoints collected between 0 and 24 hours of incubation by liquid-chromatography-coupled mass spectrometry (LC–MS). As to conditions: 2 µM.

Data set [3] in a line: The drug is tested on Z-020 corresponding to rabbit gut metagenome with ENA study accession number: PRJEB37062 and ENA sample accession number: ERS12561819 for biotransformation under anaerobic condition. The drug concentrations were measured over 9 timepoints collected between 0 and 24 hours of incubation by liquid-chromatography-coupled mass spectrometry (LC–MS). The note with it: 2 µM.

The nature of data set [4]: The drug is tested on Z-019 corresponding to rat gut metagenome with ENA study accession number: PRJEB37062 and ENA sample accession number: ERS12561818 for biotransformation under anaerobic condition. The drug concentrations were measured over 9 timepoints collected between 0 and 24 hours of incubation by liquid-chromatography-coupled mass spectrometry (LC–MS). The note with it: 2 µM.

A short description of data set [5]: The drug is tested on Z-012 corresponding to metagenome with ENA study accession number: PRJEB37062 and ENA sample accession number: ERS12561812 for biotransformation under anaerobic condition. The drug concentrations were measured over 9 timepoints collected between 0 and 24 hours of incubation by liquid-chromatography-coupled mass spectrometry (LC–MS). The note with it: 2 µM.

The nature of data set [6]: The drug is tested on Z-006 corresponding to mouse gut metagenome with ENA study accession number: PRJEB37062 and ENA sample accession number: ERS12561806 for biotransformation under anaerobic condition. The drug concentrations were measured over 9 timepoints collected between 0 and 24 hours of incubation by liquid-chromatography-coupled mass spectrometry (LC–MS). As to conditions: 2 µM.

A short description of data set [7]: The drug is tested on Z-005 corresponding to metagenome with ENA study accession number: PRJEB37062 and ENA sample accession number: ERS12561805 for biotransformation under anaerobic condition. The drug concentrations were measured over 9 timepoints collected between 0 and 24 hours of incubation by liquid-chromatography-coupled mass spectrometry (LC–MS). The note with it: 2 µM.

A short description of data set [8]: The drug is tested on Z-002 corresponding to rabbit gut metagenome with ENA study accession number: PRJEB37062 and ENA sample accession number: ERS12561802 for biotransformation under anaerobic condition. The drug concentrations were measured over 9 timepoints collected between 0 and 24 hours of incubation by liquid-chromatography-coupled mass spectrometry (LC–MS). As to conditions: 2 µM.

The conditions of data set [9]: human gut metagenome, 24 h, 2 µM.
The conditions of data set [10]: human gut metagenome, 24 h, 2 µM. This is another data set of the same source.
The conditions of data set [11]: human gut metagenome, 24 h, 2 µM. The source holds these as a separate data set.
For data set [12] the following is noted: human gut metagenome, 24 h, 2 µM. This is another data set of the same source.
The conditions of data set [13]: human gut metagenome, 24 h, 2 µM. This is another data set of the same source.
The conditions of data set [14]: human gut metagenome, 24 h, 2 µM. This is another data set of the same source.
The conditions of data set [15]: human gut metagenome, 24 h, 2 µM. The source holds these as a separate data set.
For data set [16] the following is noted: human gut metagenome, 24 h, 2 µM. This is another data set of the same source.
For data set [17] the following is noted: human gut metagenome, 24 h, 2 µM. The source holds these as a separate data set.
The conditions of data set [18]: human gut metagenome, 24 h, 2 µM. This is another data set of the same source.
The conditions of data set [19]: human gut metagenome, 24 h, 2 µM. The source holds these as a separate data set.
The conditions of data set [20]: human gut metagenome, 24 h, 2 µM. This is another data set of the same source.
Also: call rule not given here.

As to `Cc1nc(-c2ccc(OCC(C)C)c(C#N)c2)sc1C(=O)O` [FEBUXOSTAT], the “Bacterial Biotransformation” value in [1] was “Compound metabolized”; in data set [2] it was “Compound metabolized”; in data set [3] it was “Compound metabolized”; in data set [4], “Compound NOT metabolized”; in data set [5], “Compound NOT metabolized”; in [6] it was “Compound NOT metabolized”. The “Bacterial Biotransformation” value in data set [7], in [8], in data set [9], in data set [10], in data set [11] and in data set [12] was “Compound metabolized” each time. For the same molecule, the “Bacterial Biotransformation” value in data set [13] is “Compound metabolized”; in data set [14] it was “Compound metabolized”; in data set [15], “Compound NOT metabolized”; in [16], “Compound metabolized”; in [17] it was “Compound metabolized”; in data set [18], “Compound metabolized”. The “Bacterial Biotransformation” value in data set [19] and in data set [20] was “Compound metabolized” throughout.
For `CC(C)(C(=O)O)c1ccc(C(O)CCCN2CCC(C(O)(c3ccccc3)c3ccccc3)CC2)cc1` (stereo not given) [FEXOFENADINE], the “Bacterial Biotransformation” value is reported as “Compound metabolized” in data set [1]; “Compound NOT metabolized” in [2]; “Compound NOT metabolized” in data set [3]; “Compound NOT metabolized” in data set [4]; “Compound NOT metabolized” in data set [5]; “Compound NOT metabolized” in data set [6]. For the same molecule, the “Bacterial Biotransformation” value is given as “Compound NOT metabolized” in data set [7]; “Compound metabolized” in data set [8]; “Compound NOT metabolized” in [9]; “Compound NOT metabolized” in data set [10]; “Compound NOT metabolized” in data set [11]; “Compound NOT metabolized” in data set [12]. In addition, the “Bacterial Biotransformation” value in data set [13], in data set [14], in data set [15], in [16], in data set [17] and in [18] was “Compound NOT metabolized” in each case. In addition, the “Bacterial Biotransformation” value in data set [19] and in [20] was “Compound NOT metabolized” throughout.
As to `COc1ccc2c3c1O[C@H]1C[C@@H](O)C=C[C@@]31CCN(C)C2` [GALANTAMINE], the “Bacterial Biotransformation” value in data set [1], in [2], in data set [3], in data set [4], in data set [5] and in data set [6] was “Compound NOT metabolized” each time. The “Bacterial Biotransformation” value in data set [7] is reported as “Compound NOT metabolized”; in [8] it was “Compound metabolized”; in [9] it was “Compound NOT metabolized”; in data set [10], “Compound NOT metabolized”; in [11] it was “Compound NOT metabolized”; in data set [12], “Compound metabolized”. In addition, the “Bacterial Biotransformation” value in [13] is “Compound metabolized”; in data set [14] it was “Compound NOT metabolized”; in data set [15], “Compound NOT metabolized”; in data set [16], “Compound NOT metabolized”; in data set [17] it was “Compound NOT metabolized”; in data set [18] it was “Compound NOT metabolized”. Besides, the “Bacterial Biotransformation” value in [19] and in data set [20] was “Compound metabolized” in each case.
As for `Cc1ccc(S(=O)(=O)NC(=O)NN2CC3CCCC3C2)cc1` (stereo not given) [GLICLAZIDE], the “Bacterial Biotransformation” value in [1] is reported as “Compound metabolized”; in [2], “Compound NOT metabolized”; in [3], “Compound metabolized”; in data set [4], “Compound NOT metabolized”; in [5], “Compound metabolized”; in data set [6] it was “Compound metabolized”. In addition, the “Bacterial Biotransformation” value in data set [7], in [8], in [9], in data set [10], in [11] and in data set [12] was “Compound metabolized” in each case. In addition, the “Bacterial Biotransformation” value in [13], in [14], in data set [15], in [16], in data set [17] and in data set [18] was “Compound metabolized” each time. Besides, the “Bacterial Biotransformation” value in [19] and in [20] was “Compound metabolized” throughout.
Consider `COC1=CC(=O)C[C@@H](C)[C@]12Oc1c(Cl)c(OC)cc(OC)c1C2=O` [GRISEOFULVIN], for which the “Bacterial Biotransformation” value in data set [1] is “Compound metabolized”; in [2], “Compound metabolized”; in [3] it was “Compound NOT metabolized”; in data set [4] it was “Compound NOT metabolized”; in data set [5], “Compound metabolized”; in data set [6], “Compound metabolized”. Besides, the “Bacterial Biotransformation” value is reported as “Compound metabolized” in data set [7]; “Compound metabolized” in data set [8]; “Compound NOT metabolized” in data set [9]; “Compound NOT metabolized” in [10]; “Compound metabolized” in data set [11]; “Compound metabolized” in [12]. For the same molecule, the “Bacterial Biotransformation” value in [13], in [14], in data set [15], in data set [16], in data set [17] and in [18] was “Compound metabolized” throughout. Besides, the “Bacterial Biotransformation” value in data set [19] and in data set [20] was “Compound metabolized” in each case.
In the case of `N#Cc1ccc(C(c2ccc(C#N)cc2)n2cncn2)cc1` [LETROZOLE], the “Bacterial Biotransformation” value in data set [1] was “Compound metabolized”; in data set [2], “Compound metabolized”; in data set [3], “Compound NOT metabolized”; in data set [4], “Compound NOT metabolized”; in data set [5] it was “Compound NOT metabolized”; in data set [6] it was “Compound NOT metabolized”. The “Bacterial Biotransformation” value in data set [7] is recorded as “Compound NOT metabolized”; in [8] it was “Compound metabolized”; in data set [9], “Compound NOT metabolized”; in [10], “Compound NOT metabolized”; in [11] it was “Compound NOT metabolized”; in data set [12], “Compound NOT metabolized”. Also, the “Bacterial Biotransformation” value in [13], in data set [14], in data set [15], in data set [16], in data set [17] and in data set [18] was “Compound NOT metabolized” each time. Further, the “Bacterial Biotransformation” value in data set [19] and in [20] was “Compound NOT metabolized” in each case.
